SMILES strings stand for the structures.

In the assay the target is T1, Purified ERAP1 (37-941)-10His (ERAP1) (Homo sapiens, UniProt Q9NZ08).
T1 construct: Purified ERAP1 (37-941)-10His (ERAP1)
T1 sequence (Q9NZ08 37-941): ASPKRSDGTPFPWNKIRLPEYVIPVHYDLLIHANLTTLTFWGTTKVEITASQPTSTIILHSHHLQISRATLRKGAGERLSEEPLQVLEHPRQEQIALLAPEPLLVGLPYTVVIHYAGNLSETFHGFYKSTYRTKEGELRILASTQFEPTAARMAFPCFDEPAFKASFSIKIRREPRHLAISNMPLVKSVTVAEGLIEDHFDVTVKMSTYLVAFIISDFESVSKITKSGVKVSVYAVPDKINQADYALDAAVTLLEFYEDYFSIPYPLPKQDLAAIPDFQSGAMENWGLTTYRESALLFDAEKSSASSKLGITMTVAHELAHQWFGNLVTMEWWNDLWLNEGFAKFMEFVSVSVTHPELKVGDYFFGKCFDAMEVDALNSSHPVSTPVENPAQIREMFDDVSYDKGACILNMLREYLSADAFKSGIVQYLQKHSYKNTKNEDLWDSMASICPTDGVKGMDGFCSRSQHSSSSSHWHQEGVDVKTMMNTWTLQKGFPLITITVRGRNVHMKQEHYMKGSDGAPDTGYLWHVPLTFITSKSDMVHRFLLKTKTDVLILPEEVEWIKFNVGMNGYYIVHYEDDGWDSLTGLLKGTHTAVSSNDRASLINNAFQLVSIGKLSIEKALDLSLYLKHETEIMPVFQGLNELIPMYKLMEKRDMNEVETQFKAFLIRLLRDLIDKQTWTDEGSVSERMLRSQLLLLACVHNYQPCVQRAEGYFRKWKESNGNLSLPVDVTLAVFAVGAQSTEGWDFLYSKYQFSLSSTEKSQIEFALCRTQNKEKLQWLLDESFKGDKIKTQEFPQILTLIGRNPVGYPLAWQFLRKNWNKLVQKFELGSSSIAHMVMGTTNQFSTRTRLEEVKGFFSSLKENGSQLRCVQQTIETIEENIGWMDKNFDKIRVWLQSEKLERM
As to the kind of experiment: ERAP1 mediated hydrolysis of an amide substrate (10-mer inhibition assay), biochemical system. The note with it: 10-mer substrate, 23° C., 1 h, excitation 279 nm / emission 355 nm; read-out: IC50 vs Decapeptide WRVYEKC(Dnp)ALK-acid (where Dnp is Dinitrophenyl maleimide) (10-mer). The method, then: However, as ERAP1 hydrolyses the N-terminal amide bond and tryptophan is released this internal quenching is lost and the reaction is monitored by the increase in tryptophan fluorescence over the course of the assay. For the purposes of this application this assay is referred to as the “10mer inhibition assay” and compound potencies are calculated and expressed as IC50 as would be familiar to a person skilled in the art.
Biological Assay 1: ERAP1 Mediated Hydrolysis of an Amide Substrate Measured in a Biochemical System
Decapeptide WRVYEKC(Dnp)ALK-acid (where Dnp is Dinitrophenyl maleimide) (10-mer) L-Leucine 7-amido-4-methylcoumarin (L-AMC)
12.5 μL ERAP1 enzyme in 1×AB was combined with 250 nL test compound in DMSO. […] For detection, plates were read at excitation 365 nm and emission 442 nm (L-AMC) or excitation 279 nm and emission 355 nm (10-mer).
For orientation: IC50 means the midpoint of a concentration-inhibition curve. Turning to `COc1ccc(C(=O)O)cc1S(=O)(=O)Nc1cc(C(F)(F)F)ccc1N1C[C@H](O)[C@@H](F)C1` (relative stereo) [Example 190, 3-(N-(2-(trans-3-fluoro-4-hydroxypyrrolidin-1-yl)-5-(trifluoromethyl)phenyl)sulfamoyl)-4-methoxybenzoic acid], the IC50 is less than 5000 nM.
As for `CCc1ccc(C(=O)O)cc1S(=O)(=O)Nc1cc(C(F)(F)F)ccc1N1CCCCC1` [Example 1, 4-Ethyl-3-(N-(2-(piperidin-1-yl)-5-(trifluoromethyl)phenyl)sulfamoyl)benzoic acid], the figure is less than 500 nM.
For the molecule `CC(C)c1ccc(C(=O)O)cc1S(=O)(=O)Nc1cc(C(F)(F)F)ccc1N1CCCCC1` [Example 3, 4-isopropyl-3-(N-(2-(piperidin-1-yl)-5-(trifluoromethyl)phenyl)sulfamoyl)benzoic acid], the IC50 was less than 500 nM.
The result for `O=C(O)c1ccc(OC(F)(F)F)c(S(=O)(=O)Nc2cc(C(F)(F)F)ccc2N2CCCCC2)c1` [Example 4, 3-(N-(2-(piperidin-1-yl)-5-(trifluoromethyl)phenyl)sulfamoyl)-4-(trifluoromethoxy)benzoic acid] reads less than 500 nM; that for `COc1ccc(C(=O)O)cc1S(=O)(=O)Nc1cc(C(F)(F)F)ccc1N1C[C@H](C)C[C@H](C)C1` [Example 6, 3-(N-(2-(cis-3,5-dimethylpiperidin-1-yl)-5-(trifluoromethyl)phenyl)sulfamoyl)-4-methoxybenzoic acid], less than 500 nM.
As for `COc1ccc(C(=O)O)cc1S(=O)(=O)Nc1cc(C(F)(F)F)ccc1N1CC2CCC(C1)O2` [Example 7, 3-(N-(2-(8-oxa-3-azabicyclo[3.2.1]octan-3-yl)-5-(trifluoromethyl)phenyl)sulfamoyl)-4-methoxybenzoic acid], the figure is less than 5000 nM.
As for `COc1ccc(C(=O)O)cc1S(=O)(=O)Nc1cc(C(F)(F)F)ccc1N1C[C@H]2CN(C)C[C@H]2C1` [Example 8, 4-methoxy-3-(N-(2-(cis-5-methylhexahydropyrrolo[3,4-c]pyrrol-2 (1H)-yl)-5-(trifluoromethyl)phenyl)sulfamoyl)benzoic acid], the IC50 was greater than 5000 nM.
The result for `COc1ccc(C(=O)O)cc1S(=O)(=O)Nc1cc(C(F)(F)F)ccc1N1CCCC(F)(F)C1` [Example 9, 3-(N-(2-(3,3-difluoropiperidin-1-yl)-5-(trifluoromethyl)phenyl)sulfamoyl)-4-methoxybenzoic acid] reads less than 500 nM.
As for `COc1ccc(C(=O)O)cc1S(=O)(=O)Nc1cc(C(F)(F)F)ccc1N1C2CCCC1CC2` [Example 10, 3-(N-(2-(8-azabicyclo[3.2.1]octan-8-yl)-5-(trifluoromethyl)phenyl)sulfamoyl)-4-methoxybenzoic acid], the figure is less than 500 nM; as for `COc1ccc(C(=O)O)cc1S(=O)(=O)Nc1cc(C(F)(F)F)ccc1N1CC2(CCCO2)C1` [Example 11, 3-(N-(2-(5-oxa-2-azaspiro[3.4]octan-2-yl)-5-(trifluoromethyl)phenyl)sulfamoyl)-4-methoxybenzoic acid], less than 5000 nM.
The result for `COc1ccc(C(=O)O)cc1S(=O)(=O)Nc1cc(C(F)(F)F)ccc1N1CCC(F)(F)CC1` [Example 12, 3-(N-(2-(4,4-difluoropiperidin-1-yl)-5-(trifluoromethyl)phenyl)sulfamoyl)-4-methoxybenzoic acid] reads less than 500 nM.
For `COc1ccc(C(=O)O)cc1S(=O)(=O)Nc1cc(C(F)(F)F)ccc1N1CC2CCC(C1)C2O` (stereo not shown) [Example 13, 3-(N-(2-(8-hydroxy-3-azabicyclo[3.2.1]octan-3-yl)-5-(trifluoromethyl)phenyl)sulfamoyl)-4-methoxybenzoic acid], the IC50 was less than 500 nM.
`COc1ccc(C(=O)O)cc1S(=O)(=O)Nc1cc(C(F)(F)F)ccc1N1CCC(O)C(F)(F)C1` (stereo not shown) [Example 14, 3-(N-(2-(3,3-difluoro-4-hydroxypiperidin-1-yl)-5-(trifluoromethyl)phenyl)sulfamoyl)-4-methoxybenzoic acid]: the IC50 is less than 500 nM.
As for `CCC1(O)CCN(c2ccc(C(F)(F)F)cc2NS(=O)(=O)c2cc(C(=O)O)ccc2OC)CC1` [Example 15, 3-(N-(2-(4-ethyl-4-hydroxypiperidin-1-yl)-5-(trifluoromethyl)phenyl)sulfamoyl)-4-methoxybenzoic acid], the figure is less than 500 nM; as for `COc1ccc(C(=O)O)cc1S(=O)(=O)Nc1cc(C(F)(F)F)ccc1N1CCC(OC)C(C)(C)C1` (stereo not shown) [Example 16, 4-methoxy-3-(N-(2-(4-methoxy-3,3-dimethylpiperidin-1-yl)-5-(trifluoromethyl)phenyl)sulfamoyl)benzoic acid], less than 500 nM; as for `COc1ccc(C(=O)O)cc1S(=O)(=O)Nc1cc(C(F)(F)F)ccc1N1CCC(O)(C(F)(F)F)CC1` [Example 17, 3-(N-(2-(4-hydroxy-4-(trifluoromethyl)piperidin-1-yl)-5-(trifluoromethyl)phenyl)sulfamoyl)-4-methoxybenzoic acid], greater than 5000 nM.
As for `COc1ccc(C(=O)O)cc1S(=O)(=O)Nc1cc(C(F)(F)F)ccc1N1CC(C)(O)C1` [Example 18, 3-(N-(2-(3-hydroxy-3-methylazetidin-1-yl)-5-(trifluoromethyl)phenyl)sulfamoyl)-4-methoxybenzoic acid], the figure is less than 5000 nM; as for `COc1ccc(C(=O)O)cc1S(=O)(=O)Nc1cc(C(F)(F)F)ccc1N1CC2(CCO2)C1` [Example 19, 3-(N-(2-(1-oxa-6-azaspiro[3.3]heptan-6-yl)-5-(trifluoromethyl)phenyl)sulfamoyl)-4-methoxybenzoic acid], less than 5000 nM.
The result for `COc1ccc(C(=O)O)cc1S(=O)(=O)Nc1cc(C(F)(F)F)ccc1N1CCC(C)(O)C1` (stereo not shown) [Example 20, 3-(N-(2-(3-hydroxy-3-methylpyrrolidin-1-yl)-5-(trifluoromethyl)phenyl)sulfamoyl)-4-methoxybenzoic acid] reads less than 5000 nM; that for `COc1ccc(C(=O)O)cc1S(=O)(=O)Nc1cc(C(F)(F)F)ccc1N1CC(O)(C2CC2)C1` [Example 21, 3-(N-(2-(3-cyclopropyl-3-hydroxyazetidin-1-yl)-5-(trifluoromethyl)phenyl)sulfamoyl)-4-methoxybenzoic acid], greater than 5000 nM; that for `COc1ccc(C(=O)O)cc1S(=O)(=O)Nc1cc(C(F)(F)F)ccc1N1CC(C)(OC)C1` [Example 22, 4-methoxy-3-(N-(2-(3-methoxy-3-methylazetidin-1-yl)-5-(trifluoromethyl)phenyl)sulfamoyl)benzoic acid], greater than 5000 nM.
As for `COc1ccc(C(=O)O)cc1S(=O)(=O)Nc1cc(C(F)(F)F)ccc1N1[C@@H]2CC[C@H]1C[C@@H](O)C2` [Example 23, 3-(N-(2-(endo-3-hydroxy-8-azabicyclo [3.2.1]octan-8-yl)-5-(trifluoromethyl)phenyl)sulfamoyl)-4-methoxybenzoic acid], the half-inhibitory concentration (IC50) was greater than 5000 nM.
As for `COc1ccc(C(=O)O)cc1S(=O)(=O)Nc1cc(C(F)(F)F)ccc1N1CCC(O)C(C)(C)C1` (stereo not shown) [Example 24, 3-(N-(2-(4-hydroxy-3,3-dimethylpiperidin-1-yl)-5-(trifluoromethyl)phenyl)sulfamoyl)-4-methoxybenzoic acid], the figure is less than 500 nM.
With `COc1ccc(C(=O)O)cc1S(=O)(=O)Nc1cc(C(F)(F)F)ccc1N1C[C@H]2CCCC[C@H]2C1` [Example 25, 4-methoxy-3-(N-(2-(cis-octahydroisoindol-2-yl)-5-(trifluoromethyl)phenyl)sulfamoyl)benzoic acid], the IC50 was less than 5000 nM.
Consider `COc1ccc(C(=O)O)cc1S(=O)(=O)Nc1cc(C(F)(F)F)ccc1N1CC(O)(C(F)(F)F)C1` [Example 26, 3-(N-(2-(3-hydroxy-3-(trifluoromethyl)azetidin-1-yl)-5-(trifluoromethyl)phenyl)sulfamoyl)-4-methoxybenzoic acid], for which the IC50 is less than 500 nM.
The result for `COc1ccc(C(=O)O)cc1S(=O)(=O)Nc1cc(C(F)(F)F)ccc1N1CC[C@@H](O)[C@@H](F)C1` [Example 27, 3-(N-(2-((3S,4R)-3-fluoro-4-hydroxypiperidin-1-yl)-5-(trifluoromethyl)phenyl)sulfamoyl)-4-methoxybenzoic acid] reads less than 5000 nM.
In the case of `COc1ccc(C(=O)O)cc1S(=O)(=O)Nc1cc(C(F)(F)F)ccc1N1CCC(C)(O)CC1` [Example 28, 3-(N-(2-(4-hydroxy-4-methylpiperidin-1-yl)-5-(trifluoromethyl)phenyl)sulfamoyl)-4-methoxybenzoic acid], the IC50 is less than 500 nM.
The result for `COc1ccc(C(=O)O)cc1S(=O)(=O)Nc1cc(C(F)(F)F)ccc1N1CCCC(C)(O)C1` (stereo not shown) [Example 29, 3-(N-(2-(3-hydroxy-3-methylpiperidin-1-yl)-5-(trifluoromethyl)phenyl)sulfamoyl)-4-methoxybenzoic acid] reads less than 500 nM; that for `CCc1ccc(C(=O)O)cc1S(=O)(=O)Nc1cc(C(F)(F)F)ccc1N1C[C@H](C)C[C@H](C)C1` [Example 30], less than 500 nM; that for `COc1ccc(C(=O)O)cc1S(=O)(=O)Nc1cc(C(F)(F)F)ccc1N1CCCCC1(C)C` [Example 31, 3-(N-(2-(2,2-dimethylpiperidin-1-yl)-5-(trifluoromethyl)phenyl)sulfamoyl)-4-methoxybenzoic acid], less than 500 nM.
The result for `COc1ccc(C(=O)O)cc1S(=O)(=O)Nc1cc(C(F)(F)F)ccc1N1CCCOCC1` [Example 32, 3-(N-(2-(1,4-oxazepan-4-yl)-5-(trifluoromethyl)phenyl)sulfamoyl)-4-methoxybenzoic acid] reads less than 500 nM.

Source of the values: patent US12485169B2, “Compounds” (GREY WOLF THERAPEUTICS LIMITED, priority 2018, dated 2025).
